One assay has as its system E. coli ATCC 25922. Kind of assay: Antimicrobial efficacy (resazurin virtual colony count). The class given is cell-based, Escherichia coli. The conditions noted are these: pH 7.4. How it is done:
Antimicrobial Studies. The phosphate buffers used for antimicrobial assays were supplemented with non-nitrogenous energy source, 0.1% (w/v) glucose. To conduct antimicrobial assays, bacterial strains were first suspended in respective buffers. E. coli (ATCC 25922) and B. cereus (ATCC 11778) were grown in MHB II up to OD600 nm˜1 and stored as frozen stock in 20% glycerol at −80° C. Occasionally they were thawed and enumerated by serial dilution and spreading on MHB II agar plates. The concentrations of the frozen stocks of E. coli and B. cereus strains were 1.0-1.1*10^8 CFU/mL with OD600 nm˜0.8. In case of other bacterial strains, they were grown on the days of experiment up to OD600 nm˜1-1.5 and then adjusted to OD600 nm˜0.8. The growth media of the drug-resistant bacterial strains were supplemented with few of the respective antibiotics against which they are resistant. 200 μL of the 0.8 OD600 nm culture were added to 10 mL of the respective buffer to obtain a suspension which was used to incubate with equal volumes of peptide solution in the same buffer.
Antimicrobial assays in different phosphate buffers and serum were conducted by adapting, with necessary modifications a fast high-throughput method based on Virtual Colony Count technique and later modified by incorporating the use of resazurin. At first serial dilution of a microbial strain in respective buffer was poured in the wells of 96 well polypropylene microplate and was then added with same volume of 2× MHB II supplemented with 80 μg/mL resazurin and incubated at 35° C. in a Gemini EM Microplate Reader (Molecular Devices) overnight with intermittent shaking. As the microbe grows it reduces non-fluorescent resazurin to fluorescent resorufin and the fluorescent intensity of each well were measured (excitation=570 nm, emission=590 nm) each 5 min for 15 hours. The time (t, min) to reach a certain fluorescence (RFU=20000 with respect to the starting fluorescence) was correlated with the initial bacterial concentration (in CFU/mL) in the particular well to obtain a calibration plot of the form: Log([Bacteria],CFU/mL)=b+m*t Equation 4: […]
To obtain antimicrobial efficacy of the peptides, 50 μL of serially diluted peptide in a buffer was incubated with 50 μL microbial suspension in the same buffer for 3 hours in black polypropylene 96 well plate. After incubation the wells were added with 100 μL of 2× MHB II supplemented with 80 μg/mL resazurin and then incubated with continuous fluorescence reading for overnight time period as described earlier. The surviving microbial population (CFU/mL) in each well were calculated by first finding the time to reach a fluorescence of RFU=20000 and the correlation (4) for the specific microbial strain and buffer. % Survival represents the proportion of viable cells in peptide treated cells relative to cells treated with the respective buffer alone. Equation 5: […]
Finally, the antimicrobial effectiveness of each peptide against the particular microbial strain in the specific buffer was determined by plotting % microbial survival as a function of the log of the concentration of the peptide and fitting the resulting data to a variable-slope sigmoidal regression model (equation 6). In this equation, log(EC50) represents the log of the concentration of the peptide required to kill half of the microbial population, where Smin and Smax correspond to the minimal and maximal microbial survival values (respectively), and H, Hill slope, is the parameter defining the steepness of the transition slopes of sigmoidal survival curves. % Microbial survival=Smin+(Smax−Smin)/(1+10^log(EC^50^)-log[peptide]*H) Equation 6: […]
The antimicrobial efficacies of the peptides were first tested against the model Gram-negative bacteria, E. coli ATCC 25922, in different phosphate buffers having varied ionic strengths and compositions. The phosphate buffers that were used included 10 mM sodium phosphate (calculated ionic strength˜25 mM), PBS and DPBS. […]
(In general: The colour change of resazurin is a common sign of viable cells or microbes.)

Assay [1] is described as follows: Endotoxin binding: competitive displacement of BODIPY TR-Cadaverine from LPS. Also on record: species or system Escherichia coli. The conditions noted are these: 5 μM peptide, 10 μM BC, 10 μg/mL LPS, low ionic-strength 10 mM Na-PO4. On the procedure: FIGS. 2A-2B are graphs showing endotoxin binding. The figures depict the competitive displacement of BC from LPS/LTA by the peptides. 5 μM of each peptide was incubated with 10 μM BC and 10 μg/mL LPS from E. coli (0111:B4) or LTA from S. aureus. Fluorescence intensity was measured at excitation=580 nm and emission=620 nm. 10 μM BC without endotoxin was used as 100% displacement while 10 μM BC with 10 μg/mL LPS/LTA without any peptide as 0% displacement and the % displacement of BC by each peptide was calculated accordingly. […] had been used as a positive control. The horizontal dotted line coincides with the % displacement of BC by ATRA1 on the y-axis.
FIGS. 6A-6B are graphs showing endotoxin (LPS (FIG. 6A) and LTA (FIG. 6B)) binding. Competitive displacement of BC from LPS/LTA. In each case, 5 μM peptide was incubated with 10 μM BC and 10 μg/mL LPS from E. coli (0111:B4) or LTA from S. aureus. Fluorescence intensity was measured using excitation=580 nm and emission=620 nm. As a positive control 10 μM BC without endotoxin was used as a reference for 100% displacement while 10 μM BC with 10 μg/mL LPS/LTA without any peptide as a negative control and a reference for 0% displacement. These controls were used to calculate % BC displacement for each peptide.
Endotoxin Binding. The binding of endotoxin (LPS/LTA) was evaluated using a fluorogenic conjugateBODIPY TR-Cadaverine (BC). BC binds endotoxin loses its fluorescence. The peptide competitively displaces BC from endotoxin and the fluorescence is reestablished. Competitive inhibition of endotoxin-BC binding was utilized due to presence of peptides already in complexion with endotoxin. 25 μL of 20 μM of peptides in 10 mM Na—PO4 buffer were incubated with 25 μL of LPS (40 μg/mL) or LTA (40 μg/mL) for 15 min and then added with 50 μL of BC (20 uM). Peptides bind to LPS or LTA and competitively prevents BC bind to the endotoxin. BC loses its fluorescence on binding to endotoxin. The fluorescence intensity of the unbound BC was measured at excitation=580 nm and emission=620 nm.
BC contains two functional moieties: BODIPY (boron-dipyrromethene) and cadaverine connected via a carboxamide. BODIPY is the fluorophore of BC and fluoresces in the free state in solution but loses fluorescence when bound to LPS/LTA. The competitive displacement of BC from LPS/LTA by AMPs and thus regeneration of the fluorescence has frequently been used to estimate the binding strength of AMPs with LPS/LTA. In the present studies, 5 μM of each peptide was used to displace BC from LPS/LTA. […] Such observation contradicts the initial assumption that substitution of Lys with arginine would result in increased efficiency of LPS binding. However, with sequential substitutions of Lys with arginine, starting with ATRA1-AR, peptide variants show increased LPS binding with each additional arginine substitution. In terms of LPS binding: ATRA1-AR<ATRA1-AR2<ATRA1-AR3. In ATRA1-R3, the lysine residues at 9th, 5th and 1st positions of ATRA1 were substituted with arginine. In ATRA1-R6 all of the lysine residues were replaced with arginine.

The subject of assay [2] is E. coli ML35p outer membrane. Kind of assay: NPN assay, outer membrane perturbation. The class given is cell-based, Escherichia coli. The conditions noted are these: DPBS; 25 μM peptide; 25 μM PMB = 100%. On the procedure:
(§1) Interactions with Bacterial Membranes. Interaction of the peptides with bacterial membranes in different phosphate buffers were evaluated using E. coli ML35p, constructed in our laboratory. At first, competent cells of E. coli ML35 were produced by conventional competent cell preparation method, then transformed with pBR322 plasmid. Transformed colonies were selected after growing on Luria-agar containing 50 μg/mL ampicillin. A single transformed colony was grown in presence of ampicillin first in Luria broth and then in MHBII and stored as 20% glycerol stock at −80° C. This frozen stock, on the day of the experiment, was thawed and grown in MHBII containing ampicillin up to OD600 nm=0.8-0.9, washed with PBS and then suspended in the respective buffer up to the required OD600 nm for use.
NPN Assay. The outer membrane perturbation of bacteria was evaluated by incubating E. coli ML35p with peptides in presence of NPN. 100 mM NPN in acetone was supplemented proportionately to a bacterial suspension of OD600 nm˜0.5 to achieve a final concentration of 20 μM of NPN and the mixture was equilibrated for 30 mins. Then, 90 μL of the bacterial suspension containing 20 μM NPN was added with 10 μL of 250 μM peptide (10×) solution in water and scanned for fluorescence intensity (excitation=350 nm, emission=420 nm). The % Perturbation was calculated by considering PMB to be causing 100% Perturbation and water (without peptide) as 0% Perturbation. Each peptide was tested in triplicate in each of the three phosphate buffers used.
When peptides partition from the bulk aqueous environment to the cellular membranes, they may cause small defects in the membrane organization, a signature of adsorption of the peptides into the membranes. Such small defects are called membrane perturbations and can be evaluated by utilizing molecular probes. One such molecular probe is NPN, which is a hydrophobic molecule and is usually repelled to enter the hydrophobic interiors of the membrane by the polar headgroups of membrane-lipids. However, when small defects and gaps are caused during the adsorption of the peptides into the membranes, NPN can enter through those defects and in the hydrophobic environment of the membrane interior the molecule fluoresces, which can be measured for quantification of the extent of membrane-perturbation and peptide adsorption in the cellular membrane.

For assay [3], the system named is E. coli ML35p outer membrane. Kind of assay: Outer membrane disruption (β-lactamase leakage, nitrocefin). The class given is cell-based, Escherichia coli. The conditions noted are these: DPBS. On the procedure:
as §1
Membrane Disruptions. The outer and the inner membrane disruptions by the peptides were evaluated by incubating bacterial suspension with peptides and then measuring the activity of enzymes leaked out of the cells. 100 μL of 10× concentration of peptide in water was incubated with 900 μL bacterial suspension (OD600 nm˜0.1) in respective buffer for 3 hours at room temperature with gentle rotation. Then the cells and debris were separated by centrifugation (10000 r.p.m. for 30 mins) and the supernatant was collected and tested for activity of enzymes that had leaked out of the bacterial cells. HCMAB was used as a positive control to cause 100% membrane disruption and water as a negative causing 0% disruption.
The outer membrane disruption was tested by using the activity of beta-lactamase present in the periplasmic space of E. coli ML35p. Peptides when disrupt the outer membrane enough to cause beta-lactamase to come out, the degree of disruption can be measured by the virtue of the kinetics of the enzyme and using a chromogenic cephalosporin substrate called nitrocefin. β-lactamase mediated hydrolyzed product of nitrocefin has an absorbance αmax=486 nm. Supernatant collected from the incubation of peptide with bacteria was added with nitrocefin solution in DPBS and incubated at 35° C. and continuous absorbance readings. The slope of the linear section of the absorbance curve (absorbance vs time), was used as a measure of membrane disruption and the % Disruption was calculated as: Equation 7: […]
Some of the ATRA1-variants were further tested for their ability to disrupt outer and inner membranes to form pores or disruptions sufficiently large so as to allow enzymes to leak out of their cellular compartments (cytoplasm or periplasmic space). For this purpose, two reporter molecules were used with one being the substrate of a cytoplasmic enzyme and the other was a substrate for an enzyme residing in the periplasmic space. One of the reporters, nitrocefin was the substrate for β-lactamase, which is present in the bacterial periplasm, whereas the other molecule, ONPG, was the substrate for β-galactosidase, which resides in the cytoplasm of E. coli ML35p strain. […] Similarly, β-galactosidase activity in the supernatants is evidence of inner membrane disruption and possible pore formation. When the aforesaid supernatants were tested for nitrocefin and ONPG hydrolysis, the corresponding absorbance increased with time (data not shown) indicating β-lactamase and β-galactosidase activity, respectively, and thus disruption of both the inner and outer membranes. The slopes of the increase in absorbance as a function of time provides the rate of enzyme activity. The enzyme activities in supernatants collected after incubation of bacteria with the quaternary ammonium surfactant, hexadecyltrimethylammonium bromide (HCMAB) was used as an internal reference for 100% membrane disruption. Enzyme activity for supernatants collected for cells incubated in the absence of peptide provided a reference for 0% membrane disruption. Bee venom peptide melittin was used as a positive control. […]

Where [4] appears, read: PBS (high / physiologically relevant ionic strength).

As for KRAKRFFKRLK (SEQ ID NO: 7) [ATRA1-AR2], the “antimicrobial efficacy, in words” value is reported as “lose activity in DPBS” in the assay with E. coli ATCC 25922 (DPBS (with Ca++ and Mg++)); “more potent than ATRA1-A” in the assay on E. coli ATCC 25922 (setting [4]). In assay [1], the “LPS binding (BC displacement), in words” value is given as “ATRA1-AR<ATRA1-AR2<ATRA1-AR3”.

KRWKKWFKKWK (SEQ ID NO: 13) [ATRA1-W3]: in assay [2], the “membrane perturbation with respect to PMB” value is recorded as “higher OM perturbation than ATRA1”. In assay [3], the “time to reach maximum signal for nitrocefin hydrolysis” value is “approximately 30 mins”.

As for RRAKRFFKRLK (SEQ ID NO: 8) [ATRA1-AR3], the “antimicrobial efficacy, in words” value is “lose activity in DPBS” with E. coli ATCC 25922 (DPBS (with Ca++ and Mg++)); “greater effectiveness than both ATRA1-A and ATRA1” in the assay on E. coli ATCC 25922 (setting [4]). Besides, in assay [1], the “LPS binding (BC displacement), in words” value is given as “ATRA1-AR<ATRA1-AR2<ATRA1-AR3”.

For the origin of these results see patent publication US11447533B2, “Antimicrobial and anticancer peptides and conjugates and compositions, methods, articles and kits relating thereto” (George Mason Research Foundation, Inc., priority 2018, dated 2022).
